From US11109611B2, “Compositions and methods that modulate digestibility in a companion animal” (Societe des Produits Nestle SA, priority 2016, dated 2021) come the findings set out here.

What all share (assay type): in vivo, canine
Details in all cases: plasma after overnight fasting in fifth week of feeding, correlations with P value < 0.01

For experiment [1], the system named is Canines. Description: Metabolite correlations with organic matter digestibility (plasma metabolomics). How it is done: (§1) 83 Canines were all fed Diet A for 5 weeks, followed by a 1 week transition period and then 15 were fed Diet B for 5 weeks as shown in the Table 1 below. Plasma samples were taken after overnight fasting using EDTA vacutainer tubes during the fifth week of feeding of each diet. After centrifugation, plasma was aliquoted into cryovials and frozen at −80° C.
(§2) Metabolomic analysis was carried out using the following methods by Metabolon Inc. Samples were extracted and split into equal parts for analysis on GC/MS and LC/MS/MS platforms. Proprietary software was used to match ions to an in-house library of standards for metabolite identification and for metabolite quantitation by peak area integration by Metabolon Inc. Mass and retention index are provided in the following tables such that each metabolite can be uniquely identified and individually distinguished.
(§3) At the time of analysis, samples were thawed and extracts prepared to remove protein, dislodge small molecules bound to protein or physically trapped in the precipitated protein matrix, and recover a wide range of chemically diverse metabolites. A separate aliquot of each experimental plasma sample was taken then pooled for the creation of “Client Matrix” (CMTRX) samples. These CMTRX samples were injected throughout the platform run and served as technical replicates, allowing variability in the quantitation of all consistently detected biochemicals to be determined and overall process variability and platform performance to be monitored. Extracts of all experimental and CMTRX samples were split for analysis on the GC/MS and LC/MS/MS platforms.
(§4) The CMTRX technical replicate samples were treated independently throughout the process as if they were client study samples. All process samples (CMTRX and Grob test mixtures of organic components used to assess GC column performance, process blanks, etc.) were spaced evenly among the injections for each day and all client samples were randomly distributed throughout each day's run. Data were collected over multiple platform run days and thus ‘block normalized’ by calculating the median values for each run-day block for each individual compound. […] Missing values (if any) were assumed to be below the level of detection for that biochemical with the instrumentation used and were imputed with the observed minimum for that particular biochemical.
(§5) A number of internal standards were added to each experimental and process standard sample just prior to injection into the mass spectrometers.
Metabolite correlations with organic matter digestibility were determined based on plasma metabolomics (Table 2). […] The metabolite compositions of the two different diets were determined to identify relative levels of specific compounds.

The subject of experiment [2] is Canines. Description: Metabolite correlations with dry matter digestibility (plasma metabolomics). How it is done: as §1, §2, §3, §4, §5
Metabolite correlations with dry matter digestibility were determined based on plasma metabolomics (Table 6). […] Feeding different levels of these compounds (diet B vs diet A; Table 7), and noting changes in dry matter digestibility (Table 8), served as a validation model. The metabolite compositions of the two different diets were determined to identify relative levels of specific compounds.

Experiment [3] deals with Canines. As to the kind of experiment: Metabolite correlations with fiber digestibility (plasma metabolomics). On the procedure: as §1, §2, §3, §4
A number of internal standards were added to each experimental and process standard sample just prior to injection into the mass spectrometers. A measure of the platform variability (7%) was determined by calculating the median relative standard deviation (RSD) for these internal standards. Because these standards are added to the samples immediately prior to injection into the instrument, this value reflects instrument variation. In addition, the median relative standard deviation (RSD) for the biochemicals that were consistently measured in the CMTRX represents the total variability within the process for the actual experimental samples and the variability in quantitation of the endogenous metabolites within these samples (12%).
589 total metabolites were detected in plasma. […]
Metabolite correlations with fiber digestibility were determined based on plasma metabolomics (Table 10). […] The metabolite compositions of the two different diets were determined in order to identify relative levels of specific compounds.

With 1-palmitoylplasmenylethanolamine, the “Correlation with organic matter digestibility” value in the experiment with Canines [1] was −0.4149. Also, the “Correlation with dry matter digestibility” value in the experiment with Canines [2] was −0.4127. In addition, the “Correlation with fiber digestibility” value with Canines [3] is −0.3651.

Consider `OC[C@H]1OC[C@H](O)[C@@H](O)[C@@H]1O` [1,5-anhydroglucitol (1,5-AG)], for which the “Correlation with organic matter digestibility” value in the experiment with Canines [1] is reported as −0.2973.

Regarding `CCCCCCCCCCCCCCCCC(=O)OC[C@@H](O)COP(=O)(O)OCCN` [1-heptadecanoylglycerophosphoethanolamine], in the experiment on Canines [1], the “Correlation with organic matter digestibility” value was −0.4779. Moreover, the “Correlation with dry matter digestibility” value in the experiment with Canines [2] is on record as −0.4635. Also, the “Correlation with fiber digestibility” value in the experiment with Canines [3] is listed as −0.4181.

In the case of `CCCCC/C=C\C/C=C\CCCCCCCC(=O)OCC(O)COP(=O)(O)OCCN` (centres unmarked) [1-linoleoylglycerophosphoethanolamine], in the experiment with Canines [1], the “Correlation with organic matter digestibility” value is listed as −0.2924.

In the case of `CCCCCCCC/C=C\CCCCCCCC(=O)OCC(O)COP(=O)(O)OCCN` (centres unmarked) [1-oleoylglycerophosphoethanolamine], the “Correlation with organic matter digestibility” value in the experiment on Canines [1] is given as −0.4678. Moreover, the “Correlation with dry matter digestibility” value in the experiment on Canines [2] was −0.4501.

Turning to `CCCCCCCCCCCCCCCC(=O)OCC(O)CO` (centres unmarked) [1-palmitoylglycerol (1-monopalmitin)], the “Correlation with fiber digestibility” value in the experiment with Canines [3] was −0.3548.

Take `CCC(N)C(=O)O` (centres unmarked) [2-aminobutyrate]: in the experiment with Canines [1], the “Correlation with organic matter digestibility” value turned out to be 0.4586. Also, the “Correlation with dry matter digestibility” value in the experiment with Canines [2] was determined as 0.4535.

As for `CC(C)(O)C(=O)O` [2-hydroxyisobutyrate], the “Correlation with organic matter digestibility” value with Canines [1] is on record as 0.3269. Moreover, in the experiment with Canines [2], the “Correlation with dry matter digestibility” value is on record as 0.2975.

On to `CCCCC/C=C\C/C=C\CCCCCCCC(=O)O[C@H](CO)COP(=O)(O)OCCN` [2-linoleoylglycerophosphoethanolamine], for which the “Correlation with organic matter digestibility” value with Canines [1] is given as −0.3461. Further, the “Correlation with dry matter digestibility” value in the experiment with Canines [2] was −0.3262.

Consider `CCCCCCCC/C=C\CCCCCCCC(=O)OC(CO)COP(=O)(O)OCCN` (centres unmarked) [2-oleoylglycerophosphoethanolamine], for which, in the experiment with Canines [1], the “Correlation with organic matter digestibility” value is −0.3761. For the same compound, the “Correlation with dry matter digestibility” value in the experiment on Canines [2] is on record as −0.3648.

Turning to `CC(O)CC(=O)O` (centres unmarked) [3-hydroxybutyrate (BHBA)], the “Correlation with organic matter digestibility” value in the experiment on Canines [1] was 0.4249. In the experiment on Canines [2], the “Correlation with dry matter digestibility” value was 0.3858.

Consider `CC(C)C(=O)C(=O)O` [3-methyl-2-oxobutyrate], for which, in the experiment with Canines [1], the “Correlation with organic matter digestibility” value came out at 0.3345. In addition, in the experiment on Canines [2], the “Correlation with dry matter digestibility” value was 0.3102.

In the case of `CCCCC/C=C\C/C=C\C/C=C\C/C=C\CCCCCC(=O)O` [adrenate (22:4n6)], the “Correlation with organic matter digestibility” value in the experiment on Canines [1] turned out to be 0.4225. Besides, the “Correlation with dry matter digestibility” value with Canines [2] worked out at 0.366.

In the case of `Cc1c(C)c2c(c(C)c1O)CC[C@@](C)(CCC[C@H](C)CCC[C@H](C)CCCC(C)C)O2` [alpha-tocopherol], the “Correlation with fiber digestibility” value in the experiment with Canines [3] is −0.3263.

For `OC[C@@H](O)C(O)[C@H](O)CO` [arabitol], in the experiment with Canines [1], the “Correlation with organic matter digestibility” value is given as −0.3609. Further, in the experiment with Canines [2], the “Correlation with dry matter digestibility” value is −0.369.

On to `CCCCC/C=C\C/C=C\C/C=C\C/C=C\CCCC(=O)O` [arachidonate (20:4n6)], for which the “Correlation with organic matter digestibility” value in the experiment on Canines [1] was 0.5395. Besides, in the experiment on Canines [2], the “Correlation with dry matter digestibility” value worked out at 0.4779.

In the case of `CC(C)(O)CC(=O)O` [beta-hydroxyisovalerate], in the experiment with Canines [1], the “Correlation with organic matter digestibility” value is recorded as 0.3342. The “Correlation with dry matter digestibility” value with Canines [2] is recorded as 0.2994.

Turning to `N[C@@H](CCC(=O)N[C@@H](CSSC[C@H](N)C(=O)O)C(=O)NCC(=O)O)C(=O)O` [cysteine-glutathione disulfide], the “Correlation with organic matter digestibility” value with Canines [1] is −0.5693. Further, the “Correlation with dry matter digestibility” value with Canines [2] is −0.5458.

Turning to `CCCCC/C=C\C/C=C\CCCCCCCCCC(=O)O` [dihomo-linoleate (20:2n6)], the “Correlation with organic matter digestibility” value in the experiment on Canines [1] is 0.5242. Moreover, the “Correlation with dry matter digestibility” value with Canines [2] is recorded as 0.4696.

Take `CC/C=C\C/C=C\C/C=C\C/C=C\C/C=C\CCCCCC(=O)O` [docosapentaenoate (n3 DPA; 22:5n3)]: in the experiment with Canines [1], the “Correlation with organic matter digestibility” value was found to be 0.4157. For the same compound, the “Correlation with dry matter digestibility” value in the experiment with Canines [2] is given as 0.3814.

For `CCCCC/C=C\C/C=C\C/C=C\C/C=C\C/C=C\CCC(=O)O` [docosapentaenoate (n6 DPA; 22:5n6)], the “Correlation with organic matter digestibility” value in the experiment on Canines [1] is on record as 0.4971. In addition, the “Correlation with dry matter digestibility” value with Canines [2] amounted to 0.4484.

In the case of `O=C(O)C(O)CO` (centres unmarked) [glycerate], in the experiment with Canines [1], the “Correlation with organic matter digestibility” value is listed as 0.3968. In the experiment on Canines [2], the “Correlation with dry matter digestibility” value is 0.3423.

Consider `O=C(O)CO` [glycolate (hydroxyacetate)], for which the “Correlation with organic matter digestibility” value with Canines [1] was 0.3449. In addition, in the experiment on Canines [2], the “Correlation with dry matter digestibility” value amounted to 0.3124.

With `CCCCC/C=C\C/C=C\CCCCCCCC(=O)O` [linoleate (18:2n6)], in the experiment with Canines [1], the “Correlation with organic matter digestibility” value is given as 0.287.

For `CCCCCCCC(=O)O[C@H](CC(=O)O)C[N+](C)(C)C` [octanoylcarnitine], in the experiment on Canines [1], the “Correlation with organic matter digestibility” value worked out at 0.3604. The “Correlation with dry matter digestibility” value in the experiment on Canines [2] was determined as 0.3264.

Take `CCCCCCCCCCCCCCCC(=O)O` [palmitate (16:0)]: in the experiment on Canines [1], the “Correlation with organic matter digestibility” value is recorded as 0.3027. In addition, the “Correlation with dry matter digestibility” value in the experiment on Canines [2] came out at 0.2862.

On to `CCCCCC/C=C\CCCCCCCC(=O)O` [palmitoleate (16:1n7)], for which the “Correlation with organic matter digestibility” value with Canines [1] amounted to 0.3097. The “Correlation with dry matter digestibility” value in the experiment with Canines [2] came out at 0.3089.

Regarding `O=C(O)C1CCCCN1` (centres unmarked) [pipecolate], the “Correlation with organic matter digestibility” value with Canines [1] is listed as 0.415. Moreover, the “Correlation with dry matter digestibility” value in the experiment with Canines [2] is listed as 0.3661.

As for `OC[C@@H](O)[C@@H](O)[C@@H](O)CO` [ribitol], the “Correlation with fiber digestibility” value in the experiment on Canines [3] is recorded as −0.3122.

On to `C[N+]1(C)CCC[C@H]1C(=O)[O-]` [stachydrine], for which the “Correlation with organic matter digestibility” value in the experiment on Canines [1] is recorded as −0.3927. Moreover, the “Correlation with dry matter digestibility” value with Canines [2] is reported as −0.3121.

Take `CCCCCCCCCCCCCCCCCC(=O)O` [stearate (18:0)]: the “Correlation with organic matter digestibility” value in the experiment on Canines [1] is listed as 0.2845.

On to `C[n+]1cccc(C(=O)[O-])c1` [trigonelline (N′-methylnicotinate)], for which the “Correlation with organic matter digestibility” value in the experiment with Canines [1] is given as −0.5801. Also, in the experiment on Canines [2], the “Correlation with dry matter digestibility” value is −0.5297.

For the compound arabonate, the “Correlation with organic matter digestibility” value with Canines [1] is reported as −0.3117. The “Correlation with dry matter digestibility” value in the experiment on Canines [2] is −0.3013.

For the compound campesterol, the “Correlation with organic matter digestibility” value with Canines [1] is on record as −0.3283. In the experiment on Canines [2], the “Correlation with dry matter digestibility” value is listed as −0.3101.

Turning to dihomo-linolenate (20:3n3 or n6), the “Correlation with organic matter digestibility” value with Canines [1] is 0.4357. In addition, the “Correlation with dry matter digestibility” value in the experiment on Canines [2] is listed as 0.3649.

eicosenoate (20:1n9 or 11): the “Correlation with organic matter digestibility” value in the experiment on Canines [1] came out at 0.4051. For the same compound, the “Correlation with dry matter digestibility” value with Canines [2] is 0.3674.

Take “linolenate [alpha or gamma; (18:3n3 or 6)]”: the “Correlation with organic matter digestibility” value in the experiment on Canines [1] was found to be 0.3932. The “Correlation with dry matter digestibility” value in the experiment on Canines [2] came out at 0.372.

Regarding threonate, the “Correlation with organic matter digestibility” value in the experiment on Canines [1] came out at 0.3788. For the same compound, the “Correlation with dry matter digestibility” value in the experiment with Canines [2] came to 0.3492.
